We go through three compounds from US20100179095A1, “USE OF FOLATES FOR PRODUCING A PREPARATION SUITABLE FOR PREVENTING AND TREATING INFLAMMATION AND DISEASES ASSOCIATED WITH INFLAMMATION, ESPECIALLY FOR INFLUENCING THE INFLAMMATION MARKERS CRP AND SAA” (priority 2002, published 2010).

Molecules are shown by their SMILES. Read-outs that look alike come from different tables or passages of the source.

For one experiment, the system named is C-reactive protein (CRP). Put plainly: Clinical study in haemodialysis patients: plasma CRP (immuno-nephelometry, N High Sensitivity CRP). Type of experiment: in vivo, human. The conditions noted are these: for CRP Median / CRP MW (mean): plasma, haemodialysis patients. The text has this: (§1) For the individual patient, the values before therapy were compared, pair-wise, with those after 3 and 6 weeks of therapy.

The test system of experiment [1] is homocysteine (total) (Hcys). Put plainly: Clinical study in haemodialysis patients: plasma homocysteine (total). Type of experiment: in vivo, human. As for the experimental part:
For the patients for whom all the measured values could be ascertained completely at any time, a “matched pair” analysis was performed in addition. For the individual patient, the values before therapy were compared, pair-wise, with those after 3 and 6 weeks of therapy.

Experiment [2] relates to serum amyloid A protein (SAA). Put plainly: Clinical study in haemodialysis patients: plasma SAA (immuno-nephelometry, N Latex SAA). Type of experiment: in vivo, human. Conditions: for SAA MW (mean) / SAA Median: plasma, haemodialysis patients.
From the text: as §1

Experiment [3] deals with inflammation markers CRP and SAA. Conditions: haemodialysis patients, 6 weeks of folate therapy.
From the text: Clinical data were obtained via the prospective, randomised double blind study described below.
141 patients with terminal renal insufficiency, who were being treated with chronic haemodialysis on 3 days each week, and who were between 24 and 90 years old, were divided randomly into 4 therapy groups according to the sex of the patient and the presence or absence of a C677T point mutation on the gene for methylene tetrahydrofolate reductase. Randomisation based on the methylene tetrahydrofolate reductase mutation was effected in order to prevent an imbalance occurring within the individual therapy groups with regard to enzyme activity and thus with regard to folic acid metabolism also. […]
The first blood sample in the study was taken before the commencement of the administration of additional vitamins. […] The following measured quantities were each determined from plasma samples from the 3 blood samples taken: • homocysteine (total) (Hcys) • total folate (Fol) • vitamin B12 (B12) • vitamin B6 (B6) • neopterin (NEOP) • creatinine (Krea) • LDL- and HDL-cholesterol (HDL-Choi, LDL-Chol) • triglyceride (TG) • C-reactive protein (CRP) • amyloid A protein (SAA) […]
CRP and SAA were both measured by means of immuno-nephelometry and tests supplied by DadeBehring (N High Sensitivity CRP and N Latex SAA assays).
Setting [4] is: 3 w vs 6 w, value after 3 weeks vs value after 6 weeks.
Where [5] appears, read: BL vs 3 w, initial value vs value after 3 weeks.
The mark [6] stands for this setting: BL vs 6 w, initial value vs value after 6 weeks.
Where [7] appears, read: BL baseline before folate therapy.
Where [8] appears, read: BL baseline before folate therapy, basic vitamin preparation in all.
Setting [9] is: after 3 weeks (3 w) of therapy, 15 mg FTHF or MTHF, 7.5 mg PGA per day plus basic vitamin preparation.
Where [10] appears, read: after 6 weeks (6 w) of therapy, 15 mg FTHF or MTHF, 7.5 mg PGA per day plus basic vitamin preparation.

On to `Nc1nc2c(c(=O)[nH]1)N(C=O)[C@H](CNc1ccc(C(=O)N[C@@H](CCC(=O)O)C(=O)O)cc1)CN2` (mixture of isomers) [FTHF, 5-formyl-(6R,S)-tetrahydrofolic acid], for which the “CRP matched pair analysis, significance of difference” value in the experiment on C-reactive protein (CRP) (setting [4]) is given as “Ø”; in the experiment with C-reactive protein (CRP) (setting [5]) it was “* (p < 0.05)”; with C-reactive protein (CRP) (setting [6]), “Ø”. In addition, the “CRP Median” value was found to be 9 mg/L with C-reactive protein (CRP) (setting [7]), 5 mg/L with C-reactive protein (CRP) (after 3 weeks (3 w) of therapy) and 6 mg/L with C-reactive protein (CRP) (after 6 weeks (6 w) of therapy). In addition, the “CRP MW (mean)” value in the experiment with C-reactive protein (CRP) (setting [8]) is 16 mg/L; with C-reactive protein (CRP) (setting [9]), 9 mg/L; in the experiment with C-reactive protein (CRP) (setting [10]), 18 mg/L. Moreover, the “Hcys matched pair analysis, significance of difference” value in experiment [1] (setting [4]) is recorded as “Ø”; in experiment [1] (setting [5]), “* (p < 0.05)”; in experiment [1] (setting [6]), “** (p < 0.01)”. In addition, the entries for the “SAA matched pair analysis, significance of difference” value in experiment [2] (setting [4]), in experiment [2] (setting [5]) and in experiment [2] (setting [6]) were “* (p < 0.05)”, “* (p < 0.05)” and “Ø”, respectively. Besides, the “SAA MW (mean)” value in experiment [2] (setting [7]) was 28 mg/L; in experiment [2] (after 3 weeks (3 w) of therapy) it was 8 mg/L; in experiment [2] (after 6 weeks (6 w) of therapy), 35 mg/L. The figures for the “SAA Median” value in experiment [2] (setting [7]), in experiment [2] (after 3 weeks (3 w) of therapy) and in experiment [2] (after 6 weeks (6 w) of therapy) were 6 mg/L, 4 mg/L and 6 mg/L, respectively.
Consider `CN1c2c(nc(N)[nH]c2=O)NC[C@H]1CNc1ccc(C(=O)N[C@@H](CCC(=O)O)C(=O)O)cc1` (mixture of isomers) [MTHF, 5-methyl-(6R,S)-tetrahydrofolic acid], for which the figures for the “effect on inflammation markers CRP and SAA (acute phase response), in words” value in experiment [3] and in experiment [3] (listed as 5-methyl-(6R,S)-tetahydrofolic acid) were “reduce the acute phase response” and “most pronounced decrease in inflammation markers”, respectively. Moreover, the “CRP matched pair analysis, significance of difference” value in the experiment with C-reactive protein (CRP) (setting [4]) was “* (p < 0.05)”; in the experiment on C-reactive protein (CRP) (setting [5]) it was “* (p < 0.05)”; in the experiment on C-reactive protein (CRP) (setting [6]), “** (p < 0.01)”. The “CRP Median” value worked out at 11 mg/L in the experiment on C-reactive protein (CRP) (setting [7]), 8 mg/L with C-reactive protein (CRP) (after 3 weeks (3 w) of therapy) and 7 mg/L in the experiment on C-reactive protein (CRP) (after 6 weeks (6 w) of therapy). The “CRP MW (mean)” value was found to be 19 mg/L with C-reactive protein (CRP) (setting [8]), 11 mg/L in the experiment on C-reactive protein (CRP) (setting [9]) and 9 mg/L with C-reactive protein (CRP) (setting [10]). For the same compound, the results for the “Hcys matched pair analysis, significance of difference” value in experiment [1] (setting [4]), in experiment [1] (setting [5]) and in experiment [1] (setting [6]) were “Ø”, “Ø” and “* (p < 0.05)”, respectively. Also, the “SAA matched pair analysis, significance of difference” value in experiment [2] (setting [4]), in experiment [2] (setting [5]) and in experiment [2] (setting [6]) was “Ø” each time. The results for the “SAA MW (mean)” value in experiment [2] (setting [7]), in experiment [2] (after 3 weeks (3 w) of therapy) and in experiment [2] (after 6 weeks (6 w) of therapy) were 34 mg/L, 19 mg/L and 13 mg/L, respectively. The “SAA Median” value in experiment [2] (setting [7]) came to 11 mg/L; in experiment [2] (after 3 weeks (3 w) of therapy), 10 mg/L; in experiment [2] (after 6 weeks (6 w) of therapy), 9 mg/L.
With `Nc1nc2ncc(CNc3ccc(C(=O)N[C@@H](CCC(=O)O)C(=O)O)cc3)nc2c(=O)[nH]1` [PGA, folic acid], the “CRP matched pair analysis, significance of difference” value with C-reactive protein (CRP) (setting [4]), in the experiment with C-reactive protein (CRP) (setting [5]) and with C-reactive protein (CRP) (setting [6]) was “Ø” each time. Moreover, the “CRP Median” value worked out at 7 mg/L with C-reactive protein (CRP) (setting [7]), 8 mg/L in the experiment on C-reactive protein (CRP) (after 3 weeks (3 w) of therapy) and 6 mg/L with C-reactive protein (CRP) (after 6 weeks (6 w) of therapy). For the same compound, the “CRP MW (mean)” value in the experiment with C-reactive protein (CRP) (setting [8]) worked out at 10 mg/L; in the experiment on C-reactive protein (CRP) (setting [9]), 10 mg/L; in the experiment with C-reactive protein (CRP) (setting [10]) it was 9 mg/L. Further, the results for the “Hcys matched pair analysis, significance of difference” value in experiment [1] (setting [4]), in experiment [1] (setting [5]) and in experiment [1] (setting [6]) were “Ø”, “* (p < 0.05)” and “* (p < 0.05)”, respectively. Besides, the figures for the “SAA matched pair analysis, significance of difference” value in experiment [2] (setting [4]), in experiment [2] (setting [5]) and in experiment [2] (setting [6]) were “* (p < 0.05)”, “Ø” and “Ø”, respectively. Moreover, the “SAA MW (mean)” value was 11 mg/L in experiment [2] (setting [7]), 12 mg/L in experiment [2] (after 3 weeks (3 w) of therapy) and 13 mg/L in experiment [2] (after 6 weeks (6 w) of therapy). Moreover, the “SAA Median” value in experiment [2] (setting [7]) came to 7 mg/L; in experiment [2] (after 3 weeks (3 w) of therapy), 6 mg/L; in experiment [2] (after 6 weeks (6 w) of therapy), 10 mg/L.
